Assay results from the RepoRT retention time repository.

Assay: Waters ACQUITY UPLC BEH C18, 100 × 2.1 mm, 1.7 µm, 40 °C, 0.3 to 0.4 mL/min, estimated dead time 0.63 min; A: water + 0.1% formic acid; B: methanol + 0.1% formic acid; gradient (min/%B) 0/0.5 0.1/0.5 10/80 10.1/99.5 12/99.5
Conditions: stereoisomer not certain

LC retention time	SMILES
3.63 min	COc1c(O)cc2oc(-c3ccc(O)c(O)c3)c(OC3OC(COC4OC(CO)C(O)C(O)C4O)C(O)C(O)C3O)c(=O)c2c1O (centres undefined)
2.93 min	O=c1cc[nH]c2ccccc12
4.21 min	O=C(C=Cc1ccc(O)cc1)OCC1OC(OC2C(c3c(O)cc4oc(-c5ccc(O)cc5)cc(=O)c4c3O)OC(CO)C(O)C2O)C(O)C(O)C1O (centres undefined)
4.35 min	O=C(O)CC(=O)NC(Cc1c[nH]c2ccccc12)C(=O)O (centres undefined)
2.79 min	COc1cc(-c2[o+]c3cc(O)cc(OC4OC(CO)C(O)C(O)C4O)c3cc2OC2OC(CO)C(O)C(O)C2O)ccc1O (centres undefined)
4.31 min	CC(CN)CCC1(O)OC2CC3C4CCC5CC(OC6OC(CO)C(OC7OC(CO)C(O)C(OC8OCC(O)C(O)C8O)C7OC7OC(CO)C(O)C(O)C7O)C(O)C6O)CCC5(C)C4CCC3(C)C2C1C (centres undefined)
5.08 min	CC(=O)OC1C(C)OC(OC2C(c3c(O)cc(O)c4c(=O)cc(-c5ccc(O)cc5)oc34)OC(CO)C(O)C2O)C(O)C1O (centres undefined)
2.88 min	O=c1cc2oc(-c3ccc([O-])c(O)c3)c(OC3OC(CO)C(O)C(O)C3OC3OCC(O)C(O)C3O)cc-2c(O)c1 (centres undefined)
4.86 min	COc1cc2c(cc1OC)C1C(C)c3ccc(OC)c(OC)c3CN1CC2 (centres undefined)
3.46 min	Oc1cc(O)c2c(c1)OC(c1ccc(O)c(O)c1)C(O)C2c1c(O)cc(O)c2c1OC(c1ccc(O)c(O)c1)C(O)C2c1c(O)cc(O)c2c1OC(c1ccc(O)c(O)c1)C(O)C2 (centres undefined)
3.65 min	O=c1c(-c2ccc(O)cc2)coc2cc(OC3OC(CO)C(O)C(O)C3O)ccc12 (centres undefined)
4.73 min	O=C(CCc1ccc(O)cc1)c1c(O)cc(O)cc1OC1OC(CO)C(O)C(O)C1O (centres undefined)
2.22 min	NCCCCNC(=O)C=Cc1ccc(O)c(O)c1
7.59 min	COc1cc2c(c(OC)c1OC)-c1c(cc(OC)c(OC)c1OC)CC(C)(O)C(C)C2 (centres undefined)
4.17 min	COc1cc(-c2oc3cc(O)cc(O)c3c(=O)c2OC2OC(COC3OC(C)C(O)C(O)C3O)C(O)C(O)C2O)ccc1O (centres undefined)
1.82 min	O=C(O)C(Cc1ccc(O)cc1)NCC1(O)OC(CO)C(O)C1O (centres undefined)
4.9 min	COc1cc(-c2cc(=O)c3c(O)cc(OC4OC(C(=O)O)C(O)C(O)C4OC4OC(COC(=O)C=Cc5ccc(O)cc5)C(O)C(O)C4O)cc3o2)cc(OC)c1O (centres undefined)
4.78 min	CC(=O)OC1CC(C)CNC12OC1CC3C4CCC5CC(OC6OC(CO)C(OC7OC(CO)C(O)C(OC8OCC(O)C(O)C8O)C7OC7OC(CO)C(O)C(O)C7O)C(O)C6O)CCC5(C)C4CCC3(C)C1C2C (centres undefined)
8.93 min	CC(C)=CCc1c(O)ccc2c1OC(c1ccc(O)cc1)CC2=O (centres undefined)
4.99 min	CC(CCC1(O)OC2CC3C4CC=C5CC(OC6OC(CO)C(O)C(OC7OC(CO)C(O)C(O)C7O)C6OC6OC(C)C(O)C(O)C6O)CCC5(C)C4CCC3(C)C2C1C)COC1OC(CO)C(O)C(O)C1O (centres undefined)
4.95 min	CC1CCC(C(C)C2CCC3C4CC(=O)C5CC(O)CCC5(C)C4CCC23C)=NC1 (centres undefined)

LC retention time	SMILES
3.11 min	O=C(O)CC(=O)OCC1OC(Oc2c(-c3ccc(O)c(O)c3)oc3cc(OC4OC(CO)C(O)C(O)C4O)cc(O)c3c2=O)C(O)C(O)C1O (centres undefined)
2.18 min	CCCC(=O)OC(CC(=O)[O-])C[N+](C)(C)C (centres undefined)
2.81 min	COc1cc(-c2[o+]c3cc(O)cc(OC4OC(CO)C(O)C(O)C4O)c3cc2OC2OC(CO)C(O)C(O)C2O)cc(OC)c1O (centres undefined)
6.92 min	CC1OC(OC2CCC3(C)C(CCC4(C)C3CC=C3C5CC(C)(C)CCC5(C(=O)O)CCC34C)C2(C)CO)C(O)C(OC2OC(CO)C(OC3OC(CO)C(O)C(O)C3O)C(O)C2O)C1O (centres undefined)
4.21 min	COc1cc(C=CC(=O)O)cc(OC)c1O
5.29 min	COc1ccc(CCNC(=O)C=Cc2ccc(O)c(OC)c2)cc1O
4.05 min	COc1cc(-c2cc(=O)c3c(O)cc(OC4OC(C(=O)O)C(O)C(O)C4OC4OC(C(=O)O)C(O)C(O)C4O)cc3o2)ccc1O (centres undefined)
3.15 min	COc1cc(-c2[o+]c3cc(O)cc(O)c3cc2OC2OC(CO)C(O)C(O)C2O)ccc1O (centres undefined)
4.48 min	CC1OC(OC2C(c3c(O)cc4oc(-c5ccc(O)c(O)c5)cc(=O)c4c3O)OC(CO)C(O)C2O)C(O)C(O)C1O (centres undefined)
5.33 min	COc1ccc(C2CC(=O)c3c(O)cc(OC4OC(COC5OC(C)C(O)C(O)C5O)C(O)C(O)C4O)cc3O2)cc1 (centres undefined)
8.93 min	CC(C)=CCc1c(O)ccc(C(=O)C=Cc2ccc(O)cc2)c1O
8.04 min	CCCCC(=O)OC1C(CO)OC(OC2(CO)OC(CO)C(OC(C)=O)C2O)C(OC(=O)CCC)C1OC(=O)CCCC (centres undefined)
3.39 min	O=C(O)CC1CCC(=O)C1CC=CCCO (centres undefined)
5.46 min	C=CC1c2cc3n(c(=O)c2C2OC1OC1OC(CO)C(O)C(O)C1O2)CCc1c-3[nH]c2ccccc12 (centres undefined)
3.18 min	OCC=Cc1ccc(O)c(O)c1
1.57 min	O=C(O)CC(O)(CC(=O)O)C(=O)O
1.79 min	NC(Cc1ccc(O)cc1)C(=O)O (centres undefined)
3.36 min	COC(=O)C1=COC(OC2OC(CO)C(O)C(O)C2O)C2C1CC(O)C2C (centres undefined)
3.7 min	CC1CCC2C(C)C3C(CC4C5CC=C6CC(O)CCC6(C)C5CC(O)C43CO)N2C1 (centres undefined)
5.05 min	CC(CCC1(O)OC2CC3C4CC=C5CC(OC6OC(CO)C(OC7OC(C)C(O)C(O)C7O)C(O)C6OC6OC(C)C(O)C(O)C6O)CCC5(C)C4CCC3(C)C2C1C)COC1OC(CO)C(O)C(O)C1O (centres undefined)
7.36 min	CC(=O)N1CC(C)CCC12OC1CC3C4CC=C5CC(O)CCC5(C)C4CCC3(C)C1C2C (centres undefined)

LC retention time	SMILES
2.48 min	CC(C)(CO)C(O)C(=O)NCCC(=O)O (centres undefined)
4.47 min	O=c1c(OC2OCC(O)C(O)C2O)c(-c2ccc(O)cc2)oc2cc(O)cc(O)c12 (centres undefined)
2.83 min	O=S(=O)(O)ON=C(Cc1ccccc1)SC1OC(CO)C(O)C(O)C1O (centres undefined)
4.65 min	COC1OC2c3cc4c(cc3CCN(C)C2c2ccc3c(c21)OCO3)OCO4 (centres undefined)
3.2 min	C=CC1C(OC2OC(CO)C(O)C(O)C2O)OC=C2C(=O)OCCC21O (centres undefined)
2.16 min	Nc1[nH]c(=O)[nH]c(=O)c1OC1OC(CO)C(O)C(O)C1OC1OC(CO)C(O)C1O (centres undefined)
2.66 min	CC(C)CC(N)C(=O)NC(C(=O)O)C(C)C (centres undefined)
7.38 min	CC1OC(OC2C(OC3CCC4(C)C(=CCC5C4CCC4(C)C5CC5OC6(CCC(COC(=O)CC(C)(O)CC(=O)O)CO6)C(C)C54)C3)OC(CO)C(O)C2O)C(O)C(O)C1O (centres undefined)
5.42 min	O=C(O)C=Cc1ccccc1
2.06 min	O=C(O)CCSCCC(=O)O
9.02 min	CCCCCC(=O)OC1C(OC2(CO)OC(CO)C(OC(C)=O)C2O)OC(CO)C(OC(=O)CCCC)C1OC(=O)CCCC (centres undefined)
4.37 min	O=c1c(OC2OC(CO)C(O)C(O)C2O)c(-c2ccc(O)cc2)oc2cc(O)cc(O)c12 (centres undefined)
5.05 min	COc1ccc(-c2coc3cc(OC4OC(CO)C(O)C(O)C4O)c(OC)cc3c2=O)cc1 (centres undefined)
9.49 min	CCCCCC(=O)OC1C(OC2(CO)OC(CO)C(OC(C)=O)C2O)OC(CO)C(OC(=O)CCCC)C1OC(=O)CCCCC (centres undefined)
3.94 min	C=CC1C(OC2OC(CO)C(O)C(O)C2O)OC=C(C(=O)O)C1CC1NCCc2c1[nH]c1ccccc21 (centres undefined)
5 min	COc1cc2ccc(=O)oc2cc1OC
4.67 min	COc1ccc(-c2coc3cc(OC4OC(COC(=O)CC5CCNCC5)C(O)C(O)C4O)ccc3c2=O)cc1 (centres undefined)
3.42 min	COC(=O)C1=COC(OC2OC(CO)C(O)C(O)C2O)C2C(CO)=CCC12 (centres undefined)
3.7 min	O=c1cc(-c2ccc(O)c(O)c2)oc2c(C3OC(CO)C(O)C(O)C3O)c(O)cc(O)c12 (centres undefined)
2.8 min	NC(Cc1c[nH]c2ccccc12)C(=O)O (centres undefined)

SMILES	LC retention time
COC(=O)C12CC3CC(C(C)O)C1N(CCc1c2[nH]c2ccc(OC)cc12)C3 (centres undefined)	4.61 min
CCC1CC2CN3CCC4(O)C(=Nc5ccc(OC)cc54)C(C(=O)OC)(C2)C13 (centres undefined)	4.01 min
CCN1CC2(CO)CCC(OC)C34C5CC6C(OC)CC(O)(C5C6OC)C(O)(C(OC)C23)C14 (centres undefined)	3.67 min
COc1ccc(C(=O)OC2CC3CCC(C2)N3C)cc1OC (centres undefined)	3.95 min
CC(=O)Oc1ccc(C=Cc2cc(OC(C)=O)cc(OC(C)=O)c2)cc1	8.46 min
O=C(O)c1cc2c(c3c1c([N+](=O)[O-])cc1ccc(O)cc13)OCO2	5.96 min
O=C(O)c1cc2c(c3c1c([N+](=O)[O-])cc1ccccc13)OCO2	7.55 min
COc1ccc2c(c1O)-c1c(OC)c(OC)cc3c1C(C2)N(C)CC3 (centres undefined)	3.92 min
CN1Cc2c(ccc3c2OCO3)C2C(O)Cc3cc4c(cc3C21)OCO4 (centres undefined)	4.53 min
N#CC(OC1OC(COC2OC(CO)C(O)C(O)C2O)C(O)C(O)C1O)c1ccccc1 (centres undefined)	3.32 min
C=C(C)C1CNC(C(=O)O)C1CC(=O)O (centres undefined)	2.44 min
CC1CCC2C(C)C3C(CC4C5CC=C6CC(OC7OC(CO)C(OC8OC(C)C(O)C(O)C8O)C(O)C7OC7OC(C)C(O)C(O)C7O)CCC6(C)C5CCC43C)N2C1 (centres undefined)	5.01 min
CCN1CC2(OC(=O)c3ccccc3N)CCC(OC)C34C1C(CC23)C1(O)CC(OC)C2CC4C1(O)C2OC (centres undefined)	4.95 min
COCC12CCC(OC)C34C5CC6(O)C(OC)C(O)C(OC(C)=O)(C5C6OC(=O)c5ccccc5)C(C(OC)C13)C4N(C)C2 (centres undefined)	5.97 min
COc1ccc2c3c([nH]c2c1)C1CC2C(=CCO)CN1C1C3OCC21 (centres undefined)	3.6 min
CC(C)=CCCC(C)(O)C1CCC2(C)C1C(O)CC1C3(C)CCC(OC4OC(CO)C(O)C(O)C4O)C(C)(C)C3CCC12C (centres undefined)	9.84 min
C=CC12CN(C)C3C4COC(CC41)C1(C(=O)Nc4ccccc41)C32 (centres undefined)	3.21 min
